Where a name gives a salt, the structure may show the parent alone.
Assays:
Assay type in all cases: in vivo
[1] = system: eyes; experiment: Topical ocular composition (Example 212), dry eye syndrome; conditions: composition of Example 212 (0.50 wt %), as a drop twice per day
[2] = system: eyes; experiment: Topical ocular composition (Example 212), allergic symptoms
[3] = system: eyes; experiment: Topical ocular composition (Example 212), hyperemia, redness and ocular irritation; conditions: composition of Example 212 (0.50 wt %), as a drop as needed
[4] = system: patient suffering from glaucoma; experiment: Topical ocular composition (Example 212) lowering intraocular pressure
Protocol: Examples of such assays are described in the following reference, incorporated herein by reference: C. Liljebris, G. Selen, B. Resul, J. Sternschantz, and U. Hacksell, “Derivatives of 17-Phenyl-18,19,20-trinorprostaglandin F2α Isopropyl Ester: Potential Anti-glaucoma Agents”, Journal of Medicinal Chemistry, Vol. 38 (2) 1995, pp. 289-304.
(§1) Topical pharmaceutical compositions for lowering intraocular pressure are prepared by conventional methods and formulated as follows: […]
(§2) A compound according to this invention is used as the 6-aminoisoquinoline derivative. […]

[5] = system: eyes; experiment: Topical ocular composition (Example 212), neuroprotective agent; conditions: composition of Example 212 (0.50 wt %), as a drop 4 times per day
Protocol: as §1, §2

[6] = composition of Example 212 (0.50 wt %), as a drop twice per day
[7] = composition of Example 212/213 (0.50 wt %), as a drop twice a day or as needed

O=C(CCl)Nc1ccc2cnccc2c1 [Example E1, 2-chloro-N-(isoquinolin-6-yl) acetamide]
relief of dry eye syndrome [1]: relieves dry eye syndrome | decrease of allergic symptoms [2, 6]: substantially decreases allergic symptoms

NCC(=O)Nc1ccc2cnccc2c1 [Example E40, 2-amino-N-isoquinoline-6-yl-acetamide dihydrochloride]
decrease of hyperemia, redness and ocular irritation [3]: substantially decreases hyperemia, redness and ocular irritation

O=C(CNCc1ccccc1)Nc1ccc2cnccc2c1 [Example E58, 2-(benzylamino)-N-(isoquinolin-6-yl)acetamide]
decrease of intraocular pressure [4, 6]: substantially decreases intraocular pressure

O=C(Nc1ccc2cnccc2c1)OCc1ccccc1 [Example E87, benzylisoquinolin-6-ylcarbamate]
relief of dry eye syndrome [1]: relieves dry eye syndrome | decrease of allergic symptoms [2, 6]: substantially decreases allergic symptoms

O=C(NCc1ccccc1)Nc1ccc2cnccc2c1 [Example E88, 1-benzyl-3-(isoquinolin-6-yl)urea]
decrease of allergic symptoms ([2]; composition of Example 212/213 (0.50 wt %), as a drop as needed): substantially decreases allergic symptoms

O=C(CN1CCOCC1)Nc1ccc2cnccc2c1 [Example E105, N-(isoquinolin-6-yl)-2-morpholinoacetamide]
decrease of hyperemia, redness and ocular irritation [3]: substantially decreases hyperemia, redness and ocular irritation

O=C(Nc1ccncc1)c1ccc(C2CC2C(=O)Nc2ccc3cnccc3c2)cc1 (stereo not shown) [Example E118, 4-(2-(isoquinolin-6-ylcarbamoyl)cyclopropyl)-N-(pyridin-4-yl)benzamide]
decrease of intraocular pressure [4, 7]: substantially decreases intraocular pressure

CNC(=O)c1cccc(NCC(=O)Nc2ccc3cnccc3c2Cl)c1 [Example E119b, 3-(2-(5-chloroisoquinolin-6-ylamino)-2-oxoethylamino)-N-methyl benzamide]
decrease of intraocular pressure [4, 7]: substantially decreases intraocular pressure

CNC(=O)c1cccc(NCS(=O)(=O)Nc2ccc3cnccc3c2)c1 [Example E136, 3-((N-isoquinolin-6-ylsulfamoyl)methylamino)-N-methylbenzamide]
decrease of intraocular pressure [4, 6]: substantially decreases intraocular pressure

N[C@@H](CSCC(C(=O)c1ccc(/C=C/C(=O)Nc2ccc3cnccc3c2)cc1)c1ccccc1)C(=O)O (stereo partly drawn) [Example E207, (2R)-2-amino-3-(3-(4-((E)-3-(isoquinolin-6-ylamino)-3-oxoprop-1-enyl)phenyl)-3-oxo-2-phenylpropylthio)propanoic acid]
decrease of intraocular pressure ([4]; composition of Example 212 (0.50 wt %), as a drop 4 times per day): substantially decreases intraocular pressure | neuroprotective agent [5]: serves as a neuroprotective agent

— patent US8455647B2, “6-aminoisoquinoline compounds” (Aerie Pharmaceuticals, Inc., priority 2005, dated 2013)
